According to patent US9168259B2 (GRÜNENTHAL GMBH, priority 2010, dated 2015):
Where two headings read alike, the source gives them in different places.

Target: T1, KCNQ2/3 channels (Homo sapiens, UniProt O43525+O43526)
T1 construct: expressed in transfected cells
Assay: Fluorescence assay using a voltage sensitive dye (fluorimetry)
Format: cell-based

[1] = CHO-K1, plateau effect relative to saturated retigabine (50 μM) = 100%, CHO-K1 cells expressing KCNQ2/3, negative values = antagonistic, read-out: Fluorimetry % efficacy (retigabine = 100%)
[2] = CHO-K1 cells expressing KCNQ2/3, IC50 where % efficacy is negative, read-out: Fluorimetry EC50/IC50

T1 sequence (O43526 whole entry): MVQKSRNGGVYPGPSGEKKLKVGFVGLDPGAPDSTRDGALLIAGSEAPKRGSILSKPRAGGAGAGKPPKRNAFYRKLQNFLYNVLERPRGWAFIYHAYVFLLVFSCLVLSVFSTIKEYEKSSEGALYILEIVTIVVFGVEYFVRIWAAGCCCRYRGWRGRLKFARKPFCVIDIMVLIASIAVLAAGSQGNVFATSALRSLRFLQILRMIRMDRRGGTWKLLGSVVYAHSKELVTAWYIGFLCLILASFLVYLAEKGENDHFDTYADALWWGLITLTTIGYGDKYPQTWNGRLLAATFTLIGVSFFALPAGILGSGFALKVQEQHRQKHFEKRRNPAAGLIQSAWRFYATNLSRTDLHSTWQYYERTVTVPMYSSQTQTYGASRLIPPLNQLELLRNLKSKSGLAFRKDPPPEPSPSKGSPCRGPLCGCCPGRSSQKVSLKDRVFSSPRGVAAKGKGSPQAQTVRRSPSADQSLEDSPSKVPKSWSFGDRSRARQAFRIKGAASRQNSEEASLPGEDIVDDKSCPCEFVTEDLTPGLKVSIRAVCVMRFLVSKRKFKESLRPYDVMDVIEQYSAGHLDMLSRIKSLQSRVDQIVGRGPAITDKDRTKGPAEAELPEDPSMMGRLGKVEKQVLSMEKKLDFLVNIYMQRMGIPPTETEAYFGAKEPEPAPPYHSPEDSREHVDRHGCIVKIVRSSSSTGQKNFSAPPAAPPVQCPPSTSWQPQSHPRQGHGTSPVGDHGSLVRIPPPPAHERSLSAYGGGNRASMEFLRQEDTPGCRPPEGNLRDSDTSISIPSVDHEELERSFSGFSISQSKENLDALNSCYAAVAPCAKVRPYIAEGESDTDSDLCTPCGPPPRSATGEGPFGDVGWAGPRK
T1 sequence (O43525 whole entry): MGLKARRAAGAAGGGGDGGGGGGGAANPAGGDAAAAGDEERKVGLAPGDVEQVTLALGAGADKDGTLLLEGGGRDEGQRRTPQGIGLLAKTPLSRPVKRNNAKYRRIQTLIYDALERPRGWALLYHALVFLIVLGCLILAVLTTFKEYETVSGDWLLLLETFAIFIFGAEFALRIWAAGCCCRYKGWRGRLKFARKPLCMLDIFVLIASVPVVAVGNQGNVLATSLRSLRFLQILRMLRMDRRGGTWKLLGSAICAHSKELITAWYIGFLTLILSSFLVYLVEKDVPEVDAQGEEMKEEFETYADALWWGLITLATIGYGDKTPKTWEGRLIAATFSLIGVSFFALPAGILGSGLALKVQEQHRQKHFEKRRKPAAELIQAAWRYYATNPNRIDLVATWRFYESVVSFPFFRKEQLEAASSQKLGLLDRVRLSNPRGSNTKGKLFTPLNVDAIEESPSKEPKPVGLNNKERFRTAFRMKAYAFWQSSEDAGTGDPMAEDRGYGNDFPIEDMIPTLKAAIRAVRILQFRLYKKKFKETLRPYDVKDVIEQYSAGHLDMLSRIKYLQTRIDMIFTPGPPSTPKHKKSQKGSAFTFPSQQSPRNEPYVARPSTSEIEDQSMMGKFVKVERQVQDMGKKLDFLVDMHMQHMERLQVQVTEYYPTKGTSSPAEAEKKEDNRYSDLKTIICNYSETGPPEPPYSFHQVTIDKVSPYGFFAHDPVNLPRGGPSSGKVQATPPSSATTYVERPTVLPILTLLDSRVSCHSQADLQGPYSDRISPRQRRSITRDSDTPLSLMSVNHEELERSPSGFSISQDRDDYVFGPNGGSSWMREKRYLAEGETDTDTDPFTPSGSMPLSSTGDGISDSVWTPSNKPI

Compound	Emax [1]	EC50 [2]	EC50	Emax (CHO-K1, read-out: Fluorimetry % efficacy (retigabine = 100%))
CCSc1nc(N(C)Cc2ccncc2)cc(C)c1C(=O)NCc1cccc(F)c1 [Example 118, 2-Ethylsulfanyl-N-[(3-fluorophenyl)-methyl]-4-methyl-6-[methyl-(pyridin-4-yl-methyl)-amino]-pyridine-3-carboxylic acid amide]	3%			
CCSc1nc(N2CCOC[C@H]2C)cc(C)c1C(=O)NCc1cccc(F)c1 [Example 295, 2-Ethylsulfanyl-N-[(3-fluorophenyl)-methyl]-4-methyl-6-[(3R)-3-methyl-morpholin-4-yl]-pyridine-3-carboxylic acid amide]	188%	50 nM		
Cc1cc(N2CCOCC2)nc(OCC2CC2)c1C(=O)NCc1ccc(Cl)cc1 [Example 271, N-[(4-Chlorophenyl)-methyl]-2-(cyclopropyl-methoxy)-4-methyl-6-morpholin-4-yl-pyridine-3-carboxylic acid amide]	128%	93 nM		
CCN(C)c1nc(N2CCOCC2)cc(C)c1C(=O)NCc1ccc(F)cc1 [Example 174, 2-(Ethyl-methyl-amino)-N-[(4-fluorophenyl)-methyl]-4-methyl-6-morpholin-4-yl-pyridine-3-carboxylic acid amide]	221%	422 nM		
Cc1cc(N2CCOCC2)nc(N(C)C)c1C(=O)NCc1cccc(F)c1 [Example 65, 2-Dimethylamino-N-[(3-fluorophenyl)-methyl]-4-methyl-6-morpholin-4-yl-pyridine-3-carboxylic acid amide]	238%	1060 nM		
Cc1cc(N2CCOCC2)nc(C(C)(C)C)c1C(=O)NCc1cccc(F)c1 [Example 250, 2-tert-Butyl-N-[(3-fluorophenyl)-methyl]-4-methyl-6-morpholin-4-yl-pyridine-3-carboxylic acid amide]	196%	371 nM		
Cc1cc(N2CCOC[C@H]2C)nc(N(C)C)c1C(=O)NCCCC(C)(C)C [Example 183, 2-Dimethylamino-N-(4,4-dimethyl-pentyl)-4-methyl-6-[(3R)-3-methyl-morpholin-4-yl]-pyridine-3-carboxylic acid amide]	221%	168 nM		
CCSc1nc(N2CCOCC2)cc(C)c1C(=O)NCc1ccc(OC(F)(F)F)cc1 [Example 97, 2-Ethylsulfanyl-4-methyl-6-morpholin-4-yl-N-[[4-(trifluoromethyloxy)-phenyl]methyl]-pyridine-3-carboxylic acid amide]	136%	67 nM		
CCSc1nc(N2CCOCC2=O)cc(C)c1C(=O)NCc1cccc(F)c1 [Example 312, 2-Ethylsulfanyl-N-[(3-fluorophenyl)-methyl]-4-methyl-6-(3-oxo-morpholin-4-yl)-pyridine-3-carboxylic acid amide]	135%	6700 nM		
CCOc1nc(N2CCOCC2)cc(C)c1C(=O)NCc1ccc(Cl)cc1 [Example 166, N-[(4-Chlorophenyl)-methyl]-2-ethoxy-4-methyl-6-morpholin-4-yl-pyridine-3-carboxylic acid amide]	134%	117 nM		
CCc1cc(N2CCOCC2)nc(CC)c1C(=O)NCc1ccc(Cl)cc1 [Example 359, N-[(4-Chlorophenyl)-methyl]-2,4-diethyl-6-morpholin-4-yl-pyridine-3-carboxylic acid amide]			237 nM	141%
CCSc1nc(N2CCC(O)CC2)cc(C)c1C(=O)NCc1cccc(F)c1 [Example 15, 2-Ethylsulfanyl-N-[(3-fluorophenyl)-methyl]-6-(4-hydroxy-piperidin-1-yl)-4-methyl-pyridine-3-carboxylic acid amide]	93%	7060 nM		
Cc1cc(N2CCOCC2)nc(N2CCOCC2)c1C(=O)NCc1cccc(F)c1 [Example 12, N-[(3-Fluorophenyl)-methyl]-4-methyl-2,6-dimorpholin-4-yl-pyridine-3-carboxylic acid amide]	210%	2010 nM		
COc1nc(N2CCOCC2)cc(C)c1C(=O)NCc1ccccc1-c1ccccc1 [Example 88, 2-Methoxy-4-methyl-6-morpholin-4-yl-N-[(2-phenyl-phenyl)-methyl]-pyridine-3-carboxylic acid amide]	-83%	253 nM		
CCSc1nc(N2CCOCC2)cc(OC)c1C(=O)NCc1cccc(F)c1 [Example 336, 2-Ethylsulfanyl-N-[(3-fluorophenyl)-methyl]-4-methoxy-6-morpholin-4-yl-pyridine-3-carboxylic acid amide]	183%	430 nM		
CCSc1nc(N2CCCC2)cc(C)c1C(=O)NCc1cccc(F)c1 [Example 25, 2-Ethylsulfanyl-N-[(3-fluorophenyl)-methyl]-4-methyl-6-pyrrolidin-1-yl-pyridine-3-carboxylic acid amide]	162%	211 nM		
Cc1cc(N2CCOCC2)nc(C2CC2)c1C(=O)NCc1ccc(F)c(F)c1 [Example 332, 2-Cyclopropyl-N-[(3,4-difluoro-phenyl)-methyl]-4-methyl-6-morpholin-4-yl-pyridine-3-carboxylic acid amide]	166%	109 nM		

Compound	Emax [1]	EC50 [2]	EC50	Emax (CHO-K1, read-out: Fluorimetry % efficacy (retigabine = 100%))
CCSc1nc(N2CCOCC2)cc(C)c1C(=O)NCc1ccc2c(c1)COC2 [Example 289, N-(1,3-Dihydro-isobenzofuran-5-yl-methyl)-2-ethylsulfanyl-4-methyl-6-morpholin-4-yl-pyridine-3-carboxylic acid amide]	129%	2820 nM		
CCSc1nc(N2CCOCC2)cc(C)c1C(=O)NCCCC(C)(C)OC [Example 318, 2-Ethylsulfanyl-N-(4-methoxy-4-methyl-pentyl)-4-methyl-6-morpholin-4-yl-pyridine-3-carboxylic acid amide]	193%	2880 nM		
CCCc1nc(N2CCOC[C@H]2C)cc(C)c1C(=O)NCc1ccc(Cl)cc1 [Example 266, N-[(4-Chlorophenyl)-methyl]-4-methyl-6-[(3R)-3-methyl-morpholin-4-yl]-2-propyl-pyridine-3-carboxylic acid amide]	210%	57 nM		
CCSc1nc(N2CCOCC2)cc(C)c1C(=O)NCc1cc(C(F)(F)F)ccc1F [Example 95, 2-Ethylsulfanyl-N-[[2-fluoro-5-(trifluoromethyl)-phenyl]-methyl]-4-methyl-6-morpholin-4-yl-pyridine-3-carboxylic acid amide]	62%	56 nM		
CCSc1nc(N2CCNC(=O)C2)cc(C)c1C(=O)NCc1cccc(F)c1 [Example 143, 2-Ethylsulfanyl-N-[(3-fluorophenyl)-methyl]-4-methyl-6-(3-oxo-piperazin-1-yl)-pyridine-3-carboxylic acid amide]	28%			
CCCc1nc(N2CCOC[C@H]2C)cc(C)c1C(=O)NCc1ccc(F)cc1 [Example 197, N-[(4-Fluorophenyl)-methyl]-4-methyl-6-[(3R)-3-methyl-morpholin-4-yl]-2-propyl-pyridine-3-carboxylic acid amide]	211%	142 nM		
CCSc1nc(N(C)CC2CCCCO2)cc(C)c1C(=O)NCc1cccc(F)c1 (centres unmarked) [Example 5, 2-Ethylsulfanyl-N-[(3-fluorophenyl)-methyl]-4-methyl-6-[methyl-(tetrahydro-pyran-2-yl-methyl)-amino]-pyridine-3-carboxylic acid amide]	111%	269 nM		
CC(C)c1cc(N2CCOCC2)nc(C(C)C)c1C(=O)NCc1ccc(Cl)cc1 [Example 357, N-[(4-Chlorophenyl)-methyl]-2,4-diisopropyl-6-morpholin-4-yl-pyridine-3-carboxylic acid amide]	17%			
CCSc1nc(N2CCOCC2)cc(C)c1C(=O)NCCCC1CCCC1 [Example 105, N-(3-Cyclopentyl-propyl)-2-ethylsulfanyl-4-methyl-6-morpholin-4-yl-pyridine-3-carboxylic acid amide]	207%	179 nM		
Cc1cc(N2CCOC[C@H]2C)nc(C(C)C)c1C(=O)NCc1ccc(Cl)cc1 [Example 265, N-[(4-Chlorophenyl)-methyl]-2-isopropyl-4-methyl-6-[(3R)-3-methyl-morpholin-4-yl]-pyridine-3-carboxylic acid amide]	206%	28 nM		
CCSc1nc(N2CCC(C(=O)O)CC2)cc(C)c1C(=O)NCc1cccc(F)c1 [Example 14]	16%			
CCSc1nc(N2CCOC[C@H]2C)cc(C)c1C(=O)NCCCC(F)(F)F [Example 235, 2-Ethylsulfanyl-4-methyl-6-[(3R)-3-methyl-morpholin-4-yl]-N-(4,4,4-trifluoro-butyl)-pyridine-3-carboxylic acid amide]	235%	196 nM		
CCSc1nc(N2CCOCC2)cc(C)c1C(=O)NCc1ccc(F)c(C(F)(F)F)c1 [Example 82, 2-Ethylsulfanyl-N-[[4-fluoro-3-(trifluoromethyl)-phenyl]-methyl]-4-methyl-6-morpholin-4-yl-pyridine-3-carboxylic acid amide]	117%	118 nM		
Cc1cc(N2CCOCC2)nc(C2CC2)c1C(=O)NCCCC(C)(C)C [Example 328, 2-Cyclopropyl-N-(4,4-dimethyl-pentyl)-4-methyl-6-morpholin-4-yl-pyridine-3-carboxylic acid amide]	230%	44 nM		
CCSc1nc(N2CCO[C@H](COC)C2)cc(C)c1C(=O)NCc1cccc(F)c1 [Example 224, 2-Ethylsulfanyl-N-[(3-fluorophenyl)-methyl]-6-[(2S)-2-(methoxymethyl)-morpholin-4-yl]-4-methyl-pyridine-3-carboxylic acid amide]	136%	693 nM		
CCSc1nc(N2CCC(C)CC2)cc(C)c1C(=O)NCc1cccc(F)c1 [Example 70, 2-Ethylsulfanyl-N-[(3-fluorophenyl)-methyl]-4-methyl-6-(4-methyl-piperidin-1-yl)-pyridine-3-carboxylic acid amide]	175%	163 nM		
